# Reference: PMC11176561 (Computational and Structural Biotechnology Journal, 2024)
# Test system: ceftazidime-resistant E. coli E24
# Assay: E. coli-induced mouse bacteremia
# [1] = ceftazidime 5 mg/kg i.p., 8 h of drug treatment
smiles,measurement,setting,value
CC(C)(O/N=C(\C(=O)N[C@@H]1C(=O)N2C(C(=O)[O-])=C(C[n+]3ccccc3)CS[C@H]12)c1csc(N)n1)C(=O)O [Ceftazidime],loss of mice (mortality),ceftazidime 5 mg/kg i.p. 2 h after i.p. E. coli E24,85.7%
same,bacterial load in the blood,[1],approximately 1 × 10^9 CFU/ml
same,"bacterial load in the lung, liver, spleen, and kidney tissues",[1],approximately 1 × 10^9 CFU/g
